Reference: PubChem BioAssay AID504522 (The Scripps Research Institute Molecular Screening Center, 2011)
Active and inactive are the calls of the source. No rule for the calls is given here.

Columns and labels:
Assay in all cases: SILAC ABPP selectivity across cellular hydrolases – LC-MS, mouse cells, selectivity assay for LYPLA1 inhibitor project, late-stage follow-up (AID 504522)
LIPA = settings: serine hydrolase panel, active compounds read low
PARL = settings: serine hydrolase panel, active compounds read low
ABHD11 = settings: serine hydrolase panel, active compounds read low
ABHD6 = settings: serine hydrolase panel, active compounds read low
SERHL = settings: serine hydrolase panel, active compounds read low
PNPLA6 = settings: serine hydrolase panel, active compounds read low
BAT5 = settings: serine hydrolase panel, active compounds read low
LYPLA1 = settings: serine hydrolase panel, active compounds read low
SIAE = settings: serine hydrolase panel, active compounds read low
APEH = settings: serine hydrolase panel, active compounds read low
ESD = settings: serine hydrolase panel, active compounds read low
FAM108B1 = settings: serine hydrolase panel, active compounds read low
IAH1 = settings: serine hydrolase panel, active compounds read low
LYPLA2 = settings: serine hydrolase panel, active compounds read low
DPP4 = settings: serine hydrolase panel, active compounds read low
ABHD12 = settings: serine hydrolase panel, active compounds read low
PAFAH1B2 = settings: serine hydrolase panel, active compounds read low
PNPLA8 = settings: serine hydrolase panel, active compounds read low
CTSA = settings: serine hydrolase panel, active compounds read low
PPME1 = settings: serine hydrolase panel, active compounds read low
FAAH = settings: serine hydrolase panel, active compounds read low
ACOT1 = settings: serine hydrolase panel, active compounds read low
ACOT2 = settings: serine hydrolase panel, active compounds read low
AADACL1 = settings: serine hydrolase panel, active compounds read low
ABHD10 = settings: serine hydrolase panel, active compounds read low
PREPL = settings: serine hydrolase panel, active compounds read low
FASN = settings: serine hydrolase panel, active compounds read low
DPP9 = settings: serine hydrolase panel, active compounds read low
PAFAH1B3 = settings: serine hydrolase panel, active compounds read low
[1] = molecular target: Platelet-activating factor acetylhydrolase 2, cytoplasmic (Mus musculus) (UniProt Q8VDG7); settings: serine hydrolase panel, PAFAH2, active compounds read low
Platelet-activating factor acetylhydrolase 2, cytoplasmic (Mus musculus), sequence (Q8VDG7 whole entry, looked up): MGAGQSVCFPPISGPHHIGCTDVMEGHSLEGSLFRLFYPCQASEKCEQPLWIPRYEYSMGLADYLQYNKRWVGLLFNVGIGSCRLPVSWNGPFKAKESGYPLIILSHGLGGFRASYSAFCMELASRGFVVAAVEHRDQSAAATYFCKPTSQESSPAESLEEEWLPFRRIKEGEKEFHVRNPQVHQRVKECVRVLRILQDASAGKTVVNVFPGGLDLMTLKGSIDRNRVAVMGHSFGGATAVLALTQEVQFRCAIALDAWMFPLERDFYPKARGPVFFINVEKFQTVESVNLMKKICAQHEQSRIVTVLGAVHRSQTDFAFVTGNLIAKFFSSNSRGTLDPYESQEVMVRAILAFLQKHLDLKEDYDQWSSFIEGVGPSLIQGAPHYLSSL

LACTB = settings: serine hydrolase panel, active compounds read low
DPP7 = settings: serine hydrolase panel, active compounds read low
DPP8 = settings: serine hydrolase panel, active compounds read low
LYPLA3 = settings: serine hydrolase panel, active compounds read low
PLA2G6 = settings: serine hydrolase panel, active compounds read low
[2] = molecular target: Prolyl endopeptidase (Mus musculus) (UniProt Q9QUR6); settings: serine hydrolase panel, PREP, active compounds read low
Prolyl endopeptidase (Mus musculus), sequence (Q9QUR6 whole entry, looked up): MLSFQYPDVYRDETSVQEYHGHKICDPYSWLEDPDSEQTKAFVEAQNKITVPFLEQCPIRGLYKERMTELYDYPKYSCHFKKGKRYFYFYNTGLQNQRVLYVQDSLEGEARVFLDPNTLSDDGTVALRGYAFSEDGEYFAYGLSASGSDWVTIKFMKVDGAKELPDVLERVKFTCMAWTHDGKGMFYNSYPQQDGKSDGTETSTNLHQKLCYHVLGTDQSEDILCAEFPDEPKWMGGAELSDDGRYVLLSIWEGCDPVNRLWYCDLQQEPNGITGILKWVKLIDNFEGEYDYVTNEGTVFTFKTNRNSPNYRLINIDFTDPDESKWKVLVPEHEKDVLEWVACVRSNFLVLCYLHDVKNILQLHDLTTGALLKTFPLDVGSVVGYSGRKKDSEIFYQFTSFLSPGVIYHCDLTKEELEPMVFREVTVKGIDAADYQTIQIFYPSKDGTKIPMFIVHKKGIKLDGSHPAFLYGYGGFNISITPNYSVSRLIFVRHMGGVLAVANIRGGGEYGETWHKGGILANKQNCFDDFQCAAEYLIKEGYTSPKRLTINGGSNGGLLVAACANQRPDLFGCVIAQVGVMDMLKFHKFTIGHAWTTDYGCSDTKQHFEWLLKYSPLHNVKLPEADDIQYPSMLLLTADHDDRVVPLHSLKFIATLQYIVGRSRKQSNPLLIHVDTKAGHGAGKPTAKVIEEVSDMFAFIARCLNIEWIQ

DDHD1 = settings: serine hydrolase panel, active compounds read low
PRCP = settings: serine hydrolase panel, active compounds read low
ACOT7 = settings: serine hydrolase panel, active compounds read low

- SILAC ratio (probe-treated/control) (LIPA): 1.4 (inactive)
- SILAC ratio (probe-treated/control) (PARL): 1.5 (inactive)
- SILAC ratio (probe-treated/control) (ABHD11): 0.02
- SILAC ratio (probe-treated/control) (ABHD6): 0.9 (inactive)
- SILAC ratio (probe-treated/control) (SERHL): 1.5 (inactive)
- SILAC ratio (probe-treated/control) (PNPLA6): 1.4 (inactive)
- SILAC ratio (probe-treated/control) (BAT5): 1.5 (inactive)
- SILAC ratio (probe-treated/control) (LYPLA1): 1.5 (inactive)
- SILAC ratio (probe-treated/control) (SIAE): 1.5 (inactive)
- SILAC ratio (probe-treated/control) (APEH): 1.4 (inactive)
- SILAC ratio (probe-treated/control) (ESD): 1.4 (inactive)
- SILAC ratio (probe-treated/control) (FAM108B1): 1.3 (inactive)
- SILAC ratio (probe-treated/control) (IAH1): 1.4 (inactive)
- SILAC ratio (probe-treated/control) (LYPLA2): 1.5 (inactive)
- SILAC ratio (probe-treated/control) (DPP4): 1 (inactive)
- SILAC ratio (probe-treated/control) (ABHD12): 1.3 (inactive)
- SILAC ratio (probe-treated/control) (PAFAH1B2): 1.6 (inactive)
- SILAC ratio (probe-treated/control) (PNPLA8): 1.3 (inactive)
- SILAC ratio (probe-treated/control) (CTSA): 1.3 (inactive)
- SILAC ratio (probe-treated/control) (PPME1): 1.5 (inactive)
- SILAC ratio (probe-treated/control) (FAAH): 1.5 (inactive)
- SILAC ratio (probe-treated/control) (ACOT1): 1 (inactive)
- SILAC ratio (probe-treated/control) (ACOT2): 1.1 (inactive)
- SILAC ratio (probe-treated/control) (AADACL1): 1.3 (inactive)
- SILAC ratio (probe-treated/control) (ABHD10): 1.3 (inactive)
- SILAC ratio (probe-treated/control) (PREPL): 1.2 (inactive)
- SILAC ratio (probe-treated/control) (FASN): 1.5 (inactive)
- SILAC ratio (probe-treated/control) (DPP9): 1.5 (inactive)
- SILAC ratio (probe-treated/control) (PAFAH1B3): 1.3 (inactive)
- SILAC ratio (probe-treated/control) [1]: 1.3 (inactive)
- SILAC ratio (probe-treated/control) (LACTB): 1.5 (inactive)
- SILAC ratio (probe-treated/control) (DPP7): 1.3 (inactive)
- SILAC ratio (probe-treated/control) (DPP8): 1.5 (inactive)
- SILAC ratio (probe-treated/control) (LYPLA3): 1.5 (inactive)
- SILAC ratio (probe-treated/control) (PLA2G6): 1.4 (inactive)
- SILAC ratio (probe-treated/control) [2]: 1.4 (inactive)
- SILAC ratio (probe-treated/control) (DDHD1): 2 (inactive)
- SILAC ratio (probe-treated/control) (PRCP): 1.5 (inactive)
- SILAC ratio (probe-treated/control) (ACOT7): 1.5 (inactive)
SMILES: COCC1CCCCN1C(=O)n1ncc(C(O)(c2ccccc2)c2ccccc2)n1 (centres undefined)
